This is an account of results in US12698507B2, “Methods and compositions for conferring and/or enhancing herbicide tolerance using protoporphyrinogen IX oxidase of various cyanobacteria or variant thereof” (FarmHannong Co., Ltd., priority 2019, dated 2026).

Molecules are shown by their SMILES. Like-named read-outs stand apart in the source and are kept apart here.

The term IC50 denotes the concentration that inhibits the measured activity by half.

Experiment [1] has as its system PPO-deficient BT3 E. coli (ΔPPO) transformed with CyPPO19 variant R89A+F360M (Thermosynechococcus elongatus PKUAC-SCTE542, SEQ ID NO: 1). Description: Herbicide tolerance test in E. coli, CyPPO19 R89A+F360M. In kind it is cell-based. To be noted: LB agar, 0 to 2,000 μM herbicide, 37° C., 16-20 hours. The source says: (§1) To enhance the PPO-inhibiting herbicide resistance of CyPPO19 and CyPPO18, PPO variant genes of the above example 2 were constructed. They were transformed to BT3 (ΔPPO) strain which is deficient of PPO activity and cultured in LB media with PPO-inhibiting herbicide, thereby examining whether growth of transformed BT3 was not inhibited.
(§2) BT3 competent cells were transformed with the pET303-CyPPO19 (wild type), pET303-CyPPO18 (wild type) plasmids, and those with a mutation(s) constructed (refer to example 2) via heat shock method, and were cultured in LB agar media containing ampicillin.
(§3) Single colony transformed with each CyPPO gene was cultured in 3 mL of LB broth (LPSS) containing ampicillin for more than 12 hours, and then was subcultured in LB broth until absorbance (OD600) reached 0.5 to 1. Then, it was diluted with LB broth to OD600=0.5. Again, the diluted solution was serially diluted 4 times by a factor of one tenth. […]
(§4) Then, 10 μL of each diluted solution of E. coli was dropped on the plate and cultured at 37° C. under dark for 16-20 hours. PPO-inhibiting herbicide resistance was evaluated with the extent of E. coli growth containing each gene was observed.
(§5) The extent of herbicide resistance was evaluated by the relative growth of variants to that of wild type, and listed in Tables 9 and 10 and FIGS. 3 to 32. […]

The test system of experiment [2] is PPO-deficient BT3 E. coli (ΔPPO) transformed with CyPPO19 variant R89A+F360V (Thermosynechococcus elongatus PKUAC-SCTE542, SEQ ID NO: 1). The experiment in a line: Herbicide tolerance test in E. coli, CyPPO19 R89A+F360V. The experiment is classed as cell-based. To be noted: LB agar, 0 to 2,000 μM herbicide, 37° C., 16-20 hours.
Source text: as §1, §2, §3, §4, §5

The subject of experiment [3] is PPO-deficient BT3 E. coli (ΔPPO) transformed with CyPPO19 variant V165C+F360I (Thermosynechococcus elongatus PKUAC-SCTE542, SEQ ID NO: 1). The experiment in a line: Herbicide tolerance test in E. coli, CyPPO19 V165C+F360I. The experiment is classed as cell-based. The note with it: LB agar, 0 to 2,000 μM herbicide, 37° C., 16-20 hours.
Source text: as §1, §2, §3, §4, §5

Experiment [4] has as its system PPO-deficient BT3 E. coli (ΔPPO) transformed with CyPPO18 variant A167L+F360I (Thermosynechococcus vulcanus NIES-2134, SEQ ID NO: 3). Description: Herbicide tolerance test in E. coli, CyPPO18 A167L+F360I. To be noted: LB agar, 0 to 2,000 μM herbicide, 37° C., 16-20 hours. The experiment is classed as cell-based.
Source text: as §1, §2, §3, §4, §5

Experiment [5] has as its system PPO-deficient BT3 E. coli (ΔPPO) transformed with CyPPO18 variant V165C+A167L+F360I (Thermosynechococcus vulcanus NIES-2134, SEQ ID NO: 3). Description: Herbicide tolerance test in E. coli, CyPPO18 V165C+A167L+F360I. The experiment is classed as cell-based. The note with it: LB agar, 0 to 2,000 μM herbicide, 37° C., 16-20 hours. Also noted: key to the marks not given beside the values.
Source text: as §1, §2, §3, §4, §5

Experiment [6] has as its target Thermosynechococcus elongatus PKUAC-SCTE542 protoporphyrinogen IX oxidase CyPPO19 (SEQ ID NO: 1) variant R89A (MBP fusion) (Thermosynechococcus sichuanensis, UniProt A0A7D6JSC1, R89A). The experiment in a line: biochemical.
The target in experiment [7] is Thermosynechococcus elongatus PKUAC-SCTE542 protoporphyrinogen IX oxidase CyPPO19 (SEQ ID NO: 1) variant V165S (MBP fusion) (Thermosynechococcus sichuanensis, UniProt A0A7D6JSC1, V165S). The experiment in a line: biochemical. The note with it: 50 μM protoporphyrinogen IX, pH 7.5, room temperature, 30 min, 10,000 means equivalent to or higher.
Thermosynechococcus elongatus PKUAC-SCTE542 protoporphyrinogen IX oxidase CyPPO19 (SEQ ID NO: 1) variant V165S (MBP fusion), sequence (A0A7D6JSC1 entry or part of it V165S): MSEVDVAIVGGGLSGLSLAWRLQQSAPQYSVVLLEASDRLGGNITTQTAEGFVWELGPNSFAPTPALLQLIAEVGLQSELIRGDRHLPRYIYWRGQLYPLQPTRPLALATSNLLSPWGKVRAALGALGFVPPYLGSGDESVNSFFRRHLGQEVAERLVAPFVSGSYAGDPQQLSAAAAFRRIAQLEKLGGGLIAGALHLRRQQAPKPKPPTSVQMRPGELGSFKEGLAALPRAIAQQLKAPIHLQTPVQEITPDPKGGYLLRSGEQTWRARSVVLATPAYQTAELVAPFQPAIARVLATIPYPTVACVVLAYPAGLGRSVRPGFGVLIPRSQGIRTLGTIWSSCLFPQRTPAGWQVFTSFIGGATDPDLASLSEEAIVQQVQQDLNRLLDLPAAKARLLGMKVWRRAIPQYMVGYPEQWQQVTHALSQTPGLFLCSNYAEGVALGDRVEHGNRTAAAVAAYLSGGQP
Experiment [8] addresses Thermosynechococcus elongatus PKUAC-SCTE542 protoporphyrinogen IX oxidase CyPPO19 (SEQ ID NO: 1) variant V305M (MBP fusion) (Thermosynechococcus sichuanensis, UniProt A0A7D6JSC1, V305M). Description: PPO enzyme inhibition assay (IC50 for herbicides), CyPPO19 V305M fused to MBP. In kind it is biochemical.
Experiment [9] concerns the target Thermosynechococcus elongatus PKUAC-SCTE542 protoporphyrinogen IX oxidase CyPPO19 (SEQ ID NO: 1) variant V305L (MBP fusion) (Thermosynechococcus sichuanensis, UniProt A0A7D6JSC1, V305L). The experiment in a line: PPO enzyme inhibition assay (IC50 for herbicides), CyPPO19 V305L fused to MBP. The experiment is classed as biochemical.
For experiment [10], the target named is Thermosynechococcus vulcanus NIES-2134 protoporphyrinogen IX oxidase CyPPO18 (SEQ ID NO: 3) variant V165S (MBP fusion) (Thermosynechococcus vestitus, UniProt Q8DLV2, V165S). Description: PPO enzyme inhibition assay (IC50 for herbicides), CyPPO18 V165S fused to MBP. The experiment is classed as biochemical. To be noted: 50 μM protoporphyrinogen IX, pH 7.5, room temperature, 30 min.
Thermosynechococcus vulcanus NIES-2134 protoporphyrinogen IX oxidase CyPPO18 (SEQ ID NO: 3) variant V165S (MBP fusion), sequence (Q8DLV2 entry or part of it V165S): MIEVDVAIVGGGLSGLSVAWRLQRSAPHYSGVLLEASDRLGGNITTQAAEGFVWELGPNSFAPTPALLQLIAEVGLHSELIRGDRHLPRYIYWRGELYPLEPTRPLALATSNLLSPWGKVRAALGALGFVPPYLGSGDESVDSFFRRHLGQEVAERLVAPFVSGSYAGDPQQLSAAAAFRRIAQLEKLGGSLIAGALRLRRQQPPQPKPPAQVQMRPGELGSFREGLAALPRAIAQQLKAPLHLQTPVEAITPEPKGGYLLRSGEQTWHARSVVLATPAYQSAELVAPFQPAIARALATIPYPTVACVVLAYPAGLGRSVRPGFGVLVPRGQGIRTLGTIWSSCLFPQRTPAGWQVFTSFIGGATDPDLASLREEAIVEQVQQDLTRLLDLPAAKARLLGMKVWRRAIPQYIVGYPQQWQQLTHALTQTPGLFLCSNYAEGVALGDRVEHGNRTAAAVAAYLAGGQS

Experiment [11] addresses Thermosynechococcus vulcanus NIES-2134 protoporphyrinogen IX oxidase CyPPO18 (SEQ ID NO: 3) variant A167I (MBP fusion) (Thermosynechococcus vestitus, UniProt Q8DLV2, A167I). The experiment in a line: PPO enzyme inhibition assay (IC50 for herbicides), CyPPO18 A167I fused to MBP. The experiment is classed as biochemical. To be noted: 50 μM protoporphyrinogen IX, pH 7.5, room temperature, 30 min.

The target of experiment [12] is Thermosynechococcus vulcanus NIES-2134 protoporphyrinogen IX oxidase CyPPO18 (SEQ ID NO: 3) variant L327T (MBP fusion) (Thermosynechococcus vestitus, UniProt Q8DLV2, L327T). Description: PPO enzyme inhibition assay (IC50 for herbicides), CyPPO18 L327T fused to MBP. The note with it: 50 μM protoporphyrinogen IX, pH 7.5, room temperature, 30 min. The experiment is classed as biochemical.
Thermosynechococcus vulcanus NIES-2134 protoporphyrinogen IX oxidase CyPPO18 (SEQ ID NO: 3) variant L327T (MBP fusion), sequence (Q8DLV2 entry or part of it L327T): as the sequence (Q8DLV2 entry or part of it V165S) above, with S165V, L327T counted along it

Thermosynechococcus elongatus PKUAC-SCTE542 protoporphyrinogen IX oxidase CyPPO19 (SEQ ID NO: 1) variant R89A (MBP fusion), sequence (A0A7D6JSC1 entry or part of it R89A): as the sequence (A0A7D6JSC1 entry or part of it V165S) above, with R89A, S165V counted along it
Thermosynechococcus elongatus PKUAC-SCTE542 protoporphyrinogen IX oxidase CyPPO19 (SEQ ID NO: 1) variant V305M (MBP fusion), sequence (A0A7D6JSC1 entry or part of it V305M): as the sequence (A0A7D6JSC1 entry or part of it V165S) above, with S165V, V305M counted along it
Thermosynechococcus elongatus PKUAC-SCTE542 protoporphyrinogen IX oxidase CyPPO19 (SEQ ID NO: 1) variant V305L (MBP fusion), sequence (A0A7D6JSC1 entry or part of it V305L): as the sequence (A0A7D6JSC1 entry or part of it V165S) above, with S165V, V305L counted along it
Thermosynechococcus vulcanus NIES-2134 protoporphyrinogen IX oxidase CyPPO18 (SEQ ID NO: 3) variant A167I (MBP fusion), sequence (Q8DLV2 entry or part of it A167I): as the sequence (Q8DLV2 entry or part of it V165S) above, with S165V, A167I counted along it

As for `Cc1nn(-c2cc(CC(Cl)C(=O)O)c(Cl)cc2F)c(=O)n1C(F)F` (stereo not drawn) [Carfentrazone], the “tolerance level (relative growth of variant to wild type)” value is reported as “+” in experiment [1]; “+” in experiment [2]; “+” in experiment [3]; “++” in [4]; “++” in experiment [5]. In addition, the IC50 in experiment [6] (CyPPO19 R89A, 50 μM protoporphyrinogen IX, pH 7.5, room temperature, 30 min) is 0.857 µM; in [7], not below 10 µM; in experiment [8] (CyPPO19 V305M, 50 μM protoporphyrinogen IX, pH 7.5, room temperature, 30 min), 0.91 µM; in experiment [9] (CyPPO19 V305L, 50 μM protoporphyrinogen IX, pH 7.5, room temperature, 30 min), 1.33 µM; in [10], 2.23 µM; in experiment [11] it was 2.6 µM. Further, the IC50 in experiment [12] stood at 0.723 µM.

On to `CCOc1cc(Oc2ccc(C(F)(F)F)cc2Cl)ccc1[N+](=O)[O-]` [Oxyfluorfen], for which the “tolerance level (relative growth of variant to wild type)” value is reported as “+” in experiment [1]; “+” in experiment [2]; “+” in experiment [3]; “+” in experiment [4]; “++” in [5]. For the same compound, the IC50 in [6] is 0.602 µM; in experiment [7] (read-out: IC50) it was 1.67 µM; in experiment [8] it was 0.732 µM; in experiment [9] it was 0.793 µM; in [10], 1.49 µM; in experiment [11], 2 µM. In experiment [12], this compound yielded an IC50 of 3.6 µM.
